Measured values: patent US20190002399A1 (Nektar Therapeutics, priority 2007, published 2019)
Like-named read-outs stand apart in the source and are kept apart here. Marks after values point to notes of the source that are not given here.

Tests used:
[1] = target: T1, human Na channels expressed in native cells (human atrial myocytes) (Homo sapiens, UniProt Q14524); test: Potency at sodium channels: whole-cell patch clamp of sodium current (INa) in isolated human atrial myocytes; type: cell-based
T1 construct: from tissue; host or cells: cardiomyocytes isolated from human atrial appendages
Protocol: Experiments were performed at 23±1° C. Currents were measured using the whole-cell variant of the patch clamp method. An Axopatch 1-B amplifier (Axon Instruments, Foster City, Calif.) was used for whole-cell voltage clamping. […] Peak inward current was measured for INa. […] Creation of voltage clamp pulses and data acquisition were controlled by a PC running pClamp software (version 9.2, Axon Instruments). Test compounds were added in a cumulative manner. Data are presented as % reduction of current amplitude. […] Each cell served as its own control. Log-linear plots were created of the mean percent blockade ±SEM at the concentrations tested. Nonlinear curve fitting routine was utilized to fit a three-parameter Hill equation to the results using MicroCal Origin, version 6.0 software.

CB-1 male mice = test: Analgesic assay: acetic acid writhing test; type: in vivo
Protocol: An analgesic assay was used to determine whether a given compound can reduce and/or prevent visceral pain in mice.
The assay utilized CB-1 male mice (5-8 mice per group), each mouse being approximately 0.015-0.030 kg on the study day. Mice were treated according to standard protocols.
Mice were given a single “pretreatment” dose of a compound lacking covalent attachment of a water-soluble, non-peptidic oligomer, a corresponding conjugate comprising the compound covalently attached to a water-soluble, non-peptidic oligomer, or control solution (IV, SC, IP or orally) thirty minutes prior to the administration of the acetic acid solution. The animal was given an IP injection of an irritant (acetic acid) that induces “writhing” which may include: contractions of the abdomen, twisting and turning of the trunk, arching of the back and the extension of the hind limbs. […] After the injection the animals were returned to their cages and their behavior was observed. Contractions were counted between 0 and 20 minutes after the injection. The animals were used once. […]

[2] = pKa determination of conjugates; type: physicochemical
[3] = Log P determination of conjugates; type: physicochemical
[4] = lidocaine series, IC50 at 0.1 Hz relative to lidocaine
[5] = 10 mg/kg, SC, 30 min before IP 0.5% acetic acid, counted 0-20 min
[6] = 10 mg/kg, SC, animals with writhes ≤ upper 95% confidence limit for morphine
[7] = 10 mg/kg, SC, responding animals/N
[8] = mexiletine series, IC50 at 0.1 Hz relative to mexiletine
[9] = lidocaine series, peak INa, human atrial myocytes, pacing 0.1 Hz, 23±1° C

T1 sequence (Q14524 whole entry): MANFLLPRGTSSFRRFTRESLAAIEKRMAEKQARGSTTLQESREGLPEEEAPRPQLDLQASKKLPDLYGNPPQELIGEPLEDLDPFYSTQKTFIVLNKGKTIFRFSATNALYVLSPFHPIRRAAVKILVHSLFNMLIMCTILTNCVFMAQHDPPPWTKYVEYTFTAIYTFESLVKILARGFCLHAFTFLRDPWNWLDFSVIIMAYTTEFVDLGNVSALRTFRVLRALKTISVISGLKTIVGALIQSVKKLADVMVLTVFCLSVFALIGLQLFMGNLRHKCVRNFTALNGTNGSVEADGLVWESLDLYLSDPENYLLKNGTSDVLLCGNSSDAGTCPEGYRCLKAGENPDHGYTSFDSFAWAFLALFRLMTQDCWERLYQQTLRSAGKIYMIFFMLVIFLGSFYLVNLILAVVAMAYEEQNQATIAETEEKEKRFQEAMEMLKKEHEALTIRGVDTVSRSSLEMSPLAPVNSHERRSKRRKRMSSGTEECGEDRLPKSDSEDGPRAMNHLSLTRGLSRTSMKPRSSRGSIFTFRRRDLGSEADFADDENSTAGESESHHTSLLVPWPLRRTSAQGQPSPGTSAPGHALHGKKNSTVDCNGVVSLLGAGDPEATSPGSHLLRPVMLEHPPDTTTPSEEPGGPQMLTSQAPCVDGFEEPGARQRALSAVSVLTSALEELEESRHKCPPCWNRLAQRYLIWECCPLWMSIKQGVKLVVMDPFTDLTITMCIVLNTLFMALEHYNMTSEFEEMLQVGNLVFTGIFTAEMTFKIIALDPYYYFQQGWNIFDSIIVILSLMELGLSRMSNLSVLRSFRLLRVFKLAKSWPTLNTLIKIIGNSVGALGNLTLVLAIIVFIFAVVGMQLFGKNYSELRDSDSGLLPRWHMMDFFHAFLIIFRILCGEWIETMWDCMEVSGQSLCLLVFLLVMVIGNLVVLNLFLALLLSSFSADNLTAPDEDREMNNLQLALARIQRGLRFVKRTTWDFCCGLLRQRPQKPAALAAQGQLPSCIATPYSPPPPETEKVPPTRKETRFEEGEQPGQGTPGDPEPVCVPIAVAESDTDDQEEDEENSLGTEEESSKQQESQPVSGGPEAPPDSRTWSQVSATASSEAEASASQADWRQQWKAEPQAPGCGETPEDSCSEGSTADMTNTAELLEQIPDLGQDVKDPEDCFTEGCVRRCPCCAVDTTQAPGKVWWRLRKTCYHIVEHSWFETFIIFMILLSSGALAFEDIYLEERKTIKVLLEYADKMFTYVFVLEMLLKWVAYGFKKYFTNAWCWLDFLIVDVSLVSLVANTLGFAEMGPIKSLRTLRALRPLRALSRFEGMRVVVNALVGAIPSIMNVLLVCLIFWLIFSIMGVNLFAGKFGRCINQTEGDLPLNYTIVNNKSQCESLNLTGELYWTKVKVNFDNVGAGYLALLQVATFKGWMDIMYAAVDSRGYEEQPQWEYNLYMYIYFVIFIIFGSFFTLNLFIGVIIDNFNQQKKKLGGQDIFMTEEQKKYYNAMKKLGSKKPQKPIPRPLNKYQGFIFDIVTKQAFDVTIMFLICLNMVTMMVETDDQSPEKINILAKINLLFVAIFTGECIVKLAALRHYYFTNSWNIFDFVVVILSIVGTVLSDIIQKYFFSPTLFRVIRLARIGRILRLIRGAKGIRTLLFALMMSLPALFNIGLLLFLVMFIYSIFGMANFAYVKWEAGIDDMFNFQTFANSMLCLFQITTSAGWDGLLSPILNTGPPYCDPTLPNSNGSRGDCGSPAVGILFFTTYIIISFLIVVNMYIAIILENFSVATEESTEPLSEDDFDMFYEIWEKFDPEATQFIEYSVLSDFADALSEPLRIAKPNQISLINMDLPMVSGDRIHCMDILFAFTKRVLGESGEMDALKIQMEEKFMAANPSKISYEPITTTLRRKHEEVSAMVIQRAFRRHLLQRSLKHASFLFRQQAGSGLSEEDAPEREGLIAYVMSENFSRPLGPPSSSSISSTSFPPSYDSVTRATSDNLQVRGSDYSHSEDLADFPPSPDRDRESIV

Compound	Fold Change vs. Parent [1, 4]	IC50 ([1]; read-out: IC50 at 0.1 Hz) [µM]	% Reduction in Writhing (CB-1 male mice; 10 mg/kg, SC)	Mean (writhes) (CB-1 male mice; [5])	# of Responders (CB-1 male mice; [6])	Responding Fraction (CB-1 male mice; [7])	pKa1 ([2]; Table 2, mexiletine conjugates)	logP ([3]; read-out: LogP)	Fold Change vs. Parent [1, 8]	other results
CCNCCOCCOCCOCCOCCN(CC)CC(=O)Nc1c(C)cccc1C [EtNH-PEG5-Lidocaine, EtNH-PEG5-lidocaine]	1	99.3	–	–	–	–	–	–	–	–
CCN(CC)CC(=O)Nc1c(C)cccc1C [Lidocaine, lidocaine, reference compound]	–	–	37.5%	36.3	2	0.50	–	–	–	–
CN(C)C(=O)C(CCN1CCC(O)(c2ccc(Cl)cc2)CC1)(c1ccccc1)c1ccccc1 [Loperamide, reference compound]	–	–	–	–	–	–	–	–	–	# of Responders (CB-1 male mice; 0.75 mg/kg, SC): 4; % Reduction in Writhing (CB-1 male mice; 0.75 mg/kg, SC): 78.6%; Responding Fraction (CB-1 male mice; 0.75 mg/kg, SC): 1.00; Mean (writhes) (CB-1 male mice; 0.75 mg/kg, SC, 30 min before IP 0.5% acetic acid, counted 0-20 min): 9.0
CN1CC[C@]23c4c5ccc(O)c4O[C@H]2[C@@H](O)C=C[C@H]3[C@H]1C5 [Morphine, morphine, reference compound]	–	–	–	–	–	–	–	–	–	# of Responders (CB-1 male mice; historical morphine data, N 27, animals with writhes ≤ upper 95% confidence limit for morphine): 15; Mean (writhes) (CB-1 male mice; historical morphine data, contractions counted 0-20 min after IP 0.5% acetic acid, group table: SC 0.5 mg/kg): 21.33; % Reduction in Writhing (CB-1 male mice; historical morphine data, group table: SC 0.5 mg/kg): 57%; Responding Fraction (CB-1 male mice; historical morphine data, responding animals/N): 0.56
COCCOCCOCCN(CCOCCOCCOC)C(C)COc1c(C)cccc1C (stereo not drawn) [N,N-Di-mPEG3-Mexiletine, N,N-di-mPEG3-mexiletine]	–	66.2	–	–	–	–	7.76	1.96	1	–
COCCOCCOCCOCCOCCN(CCOCCOCCOCCOCCOC)C(C)COc1c(C)cccc1C (stereo not drawn) [N,N-Di-mPEG5-Mexiletine, N,N-di-mPEG5-mexiletine]	–	95.9	–	–	–	–	8.26	1.61	2	–
COCCOCCOCCOCCOCCOCCOCCN(CCOCCOCCOCCOCCOCCOCCOC)C(C)COc1c(C)cccc1C (stereo not drawn) [N,N-Di-mPEG7-Mexiletine, N,N-di-mPEG7-mexiletine]	–	130	–	–	–	–	7.75	0.83	2	–
COCCOCCOCCOCCCNC(C)COc1c(C)cccc1C (stereo not drawn) [N-mPEG3-C3-Mexiletine, N-mPEG3-C3-mexiletine]	–	188	46.3%	29.8	2	0.40	8.98	2.05	4	–
COCCOCCOCCNC(C)COc1c(C)cccc1C (stereo not drawn) [N-mPEG3-Mexiletine, N-mPEG3-mexiletine]	–	284	–	–	–	–	8.27	2.26	5	–
COCCOCCOCCOCCOCCNC(C)COc1c(C)cccc1C (stereo not drawn) [N-mPEG5-Mexiletine, N-mPEG5-mexiletine]	–	–	42.4%	29.0	2	0.40	8.27	4.51	–	pKa2 ([2]; Table 2, mexiletine conjugates): 7.86
COCCOCCOCCOCCOCCOCCOCCNC(C)COc1c(C)cccc1C (stereo not drawn) [N-mPEG7-Mexiletine, N-mPEG7-mexiletine]	–	206	–	–	–	–	8.26	1.23	4	–
COCCOCCOCCOCCOCCOCCOCCOCCNC(C)COc1c(C)cccc1C (stereo not drawn) [N-mPEG8-Mexiletine, N-mPEG8-mexiletine]	–	90.5	65.8%	17.2	3	0.60	8.79	1.79	2	–
Cc1cccc(C)c1OCC(C)NCCOCCOCCOCCNC(C)COc1c(C)cccc1C (stereo not drawn) [PEG4-Di-Mexiletine, PEG4-di-Mexiletine]	–	7.32	–	–	–	–	7.73	2.36	0.14	–
CCN(CCOCCOCCOCCOCCO)CC(=O)Nc1c(C)cccc1C [PEG5-Lidocaine, HO-PEG5-Lidocaine]	3	330	–	–	–	–	–	–	–	–
CCN(CCOCCOCCOCCOCCOCCO)CC(=O)Nc1c(C)cccc1C [PEG6-Lidocaine, HO-PEG6-Lidocaine]	1	104	–	–	–	–	–	–	–	–
CCN(CCOCCOCCOC)CC(=O)Nc1c(C)cccc1C [mPEG3-Lidocaine, mPEG3-lidocaine]	7	706	–	–	–	–	–	1.55	–	pKa ([2]; read-out: pKa): 6.46
CCN(CCOCCOCCOCCOC)CC(=O)Nc1c(C)cccc1C [mPEG4-Lidocaine, mPEG4-lidocaine]	2	178	–	–	–	–	–	1.42	–	pKa ([2]; read-out: pKa): 6.46
CCN(CCOCCOCCOCCOCCOC)CC(=O)Nc1c(C)cccc1C [mPEG5-Lidocaine, mPEG5-lidocaine]	1	–	–	–	–	–	–	–	–	pKa ([2]; Table 1, lidocaine conjugates): 6.46; logP ([3]; Table 1, lidocaine conjugates): 1.01; IC50 [1, 9]: 53.5 µM
CCN(CCOCCOCCOCCOCCOCCOC)CC(=O)Nc1c(C)cccc1C [mPEG6-Lidocaine, mPEG6-lidocaine]	5	473	–	–	–	–	–	1.23	–	pKa ([2]; read-out: pKa): 6.46
CCN(CCOCCOCCOCCOCCOCCOCCOC)CC(=O)Nc1c(C)cccc1C [mPEG7-Lidocaine, mPEG7-lidocaine]	2	–	40.5%	36.0	2	0.40	–	–	–	pKa ([2]; Table 1, lidocaine conjugates): 6.81; logP ([3]; Table 1, lidocaine conjugates): 1.37; IC50 [1, 9]: 236 µM
CCN(CCOCCOCCOCCOCCOCCOCCOCCOC)CC(=O)Nc1c(C)cccc1C [mPEG8-Lidocaine, mPEG8-lidocaine]	1	57.5	37.2%	38.0	2	0.40	–	0.63	–	pKa ([2]; read-out: pKa): 6.43
CCN(CCOCCOCCOCCOCCOCCOCCOCCOCCOC)CC(=O)Nc1c(C)cccc1C [mPEG9-Lidocaine, mPEG9-lidocaine]	2	173	–	–	–	–	–	0.82	–	pKa ([2]; read-out: pKa): 6.57
PEG5-di-lidocaine [mPEG5-Di-Lidocaine]	1	–	60.3* %	17.3	2	0.50*	–	–	–	# of Responders (CB-1 male mice; 3 mg/kg, SC): 2; % Reduction in Writhing (CB-1 male mice; 3 mg/kg, SC): 46.0%; Responding Fraction (CB-1 male mice; 3 mg/kg, SC): 0.50; Mean (writhes) (CB-1 male mice; 3 mg/kg, SC, 30 min before IP 0.5% acetic acid, counted 0-20 min): 23.5; IC50 [1, 9]: 83.3 µM
PEG6-di-lidocaine [mPEG6-Di-Lidocaine]	2	–	37.9%	27.0	3	0.60	–	–	–	IC50 [1, 9]: 236 µM
